Test results as given in patent publication US7456218B2, “3-(4-benzyloxyphenyl) propanoic acid derivatives” (Takeda Pharmaceutical Company Limited, priority 2003, dated 2008).

What was measured:
human GPR40 = target: T1, human GPR40 (Homo sapiens, UniProt O14842); assay: Determination of EC50 against human GPR40: changes in intracellular calcium concentration by FLIPR in CHO cells stably expressing human GPR40; assay type: cell-based; settings: CHO cell line stably expressing human GPR40, Fluo3-AM, read-out: EC50 (Receptor Function Modulating Action On GPR40)
T1 construct: expressed in transfected cells
Protocol: Determination of EC50 of the Compound of the Present Invention Against Human GPR40
For determination of EC50, CHO cell line that stably expressed human GPR40 was used. Unless otherwise indicated, the CHO cell line was cultured using α-MEM medium (Invitrogen) containing 10% fetal calf serum (Invitrogen).
The cells cultured to nearly confluent were rinsed with PBS (Invitrogen) on the previous day of the assay, peeled off with 0.05% Trypsin-EDTA solution (Invitrogen) and recovered by centrifugation. The number of the obtained cells was counted, and the cells were diluted such that 3×10^5 cells were contained per 1 mL of the medium, dispensed to a black welled 96-well plate (coster) by 100 μL per well and cultured overnight in a CO2 incubator. Various test compounds were added to the CHO cells thus prepared, and the changes in the intracellular calcium concentration was measured using FLIPR (Molecular Device). The below-mentioned pre-treatment was applied to measure changes in the intracellular calcium concentration by FLIPR.
An assay buffer for adding a fluorescence dye Fluo3-AM (DOJIN) to the cells, or for washing the cells immediately before FLIPR assay was prepared. To a solution of 1M HEPES (pH 7.4, DOJIN, 20 mL) added to HBSS (Invitrogen, 1000 mL) (hereinafter HBSS/HEPES solution) was added a solution (10 mL) obtained by dissolving probenecid (Sigma, 710 mg) in 1N NaOH (5 mL), and adding and mixing an HBSS/HEPES solution (5 mL), and the resulting solution was used as an assay buffer. Fluo3-AM (50 μg) was dissolved in dimethylsulfoxide (Wako, 21 μL), and an equivalent amount of 20% pluronic acid (Molecular Probes) was added and mixed. The solution was added to the assay buffer (10.6 mL) supplemented with fetal calf serum (105 μL) to give a fluorescence dye solution. […], the medium of the CHO cells newly inoculated to the black welled 96-well plate was removed, the fluorescence dye solution was immediately dispensed by 100 μL per well and the cells were cultured in a CO2 incubator for 1 hr to allow intake of the fluorescence dye by the cells. The cells after the culture were washed with the above-mentioned assay buffer and set on FLIPR. The test compound was diluted with dimethylsulfoxide in advance, dispensed to polypropylene 96-well plate (sample plate) by 2 μL, and cryopreserved at −20° C. To the thawed sample plate was added an assay buffer containing 0.015% CHAPS (DOJIN) by 198 μL, and simultaneously set on FLIPR together with the cell plate. After the aforementioned pre-treatment, changes in the intracellular calcium concentration upon addition of various test compounds was measured by FLIPR. Based on the results, a dose-response curve of each test compound was formed and EC50 was calculated.

T1 sequence (O14842 whole entry): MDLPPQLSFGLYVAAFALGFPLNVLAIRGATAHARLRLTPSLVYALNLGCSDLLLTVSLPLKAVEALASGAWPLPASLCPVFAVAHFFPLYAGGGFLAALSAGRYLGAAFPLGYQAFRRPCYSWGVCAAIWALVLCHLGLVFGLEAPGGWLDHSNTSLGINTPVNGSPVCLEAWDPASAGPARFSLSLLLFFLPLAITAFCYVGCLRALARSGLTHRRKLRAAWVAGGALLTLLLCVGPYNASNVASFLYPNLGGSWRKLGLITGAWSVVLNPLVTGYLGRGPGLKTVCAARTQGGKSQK

SMILES | EC50 (human GPR40) [µM] | melting point [°C]
Cc1cc(OCc2ccccc2)cc(C)c1-c1cccc(COc2ccc(CCC(=O)O)cc2)c1 [Example 39, 3-[4-[[4′-(benzyloxy)-2′,6′-dimethylbiphenyl-3-yl]methoxy]phenyl]propanoic acid] | 0.032 | –
Cc1cc(C)c(-c2cccc(COc3ccc(CCC(=O)O)c(F)c3)c2)c(COc2ccc(F)cc2)c1 [Example 54, 3-{2-fluoro-4-[(2′-(4-fluorophenoxymethyl)-4′,6′-dimethylbiphenyl-3-yl)methoxy]phenyl}propanoic acid] | 0.049 | –
CCS(=O)(=O)CCOc1cc(C)c(-c2cccc(COc3ccc(CCC(=O)O)c(F)c3)c2)c(C)c1 [Example 86, 3-[4-({4′-[2-(ethylsulfonyl)ethoxy]-2′,6′-dimethylbiphenyl-3-yl}methoxy)-2-fluorophenyl]propanoic acid] | 0.032 | –
Cc1cc(OCCCN2CCCC2=O)cc(C)c1-c1cccc(COc2ccc(CCC(=O)O)c(F)c2)c1 [Example 90, 3-[4-({2′,6′-dimethyl-4′-[3-(2-oxopyrrolidin-1-yl)propoxy]biphenyl-3-yl}methoxy)-2-fluorophenyl]propanoic acid] | 0.034 | –
Cc1cccc(COc2cc(C)c(-c3cccc(COc4ccc(CCC(=O)O)c(F)c4)c3)c(C)c2)n1.Cl [Example 97, 3-[4-({2′,6′-dimethyl-4′-[(6-methylpyridin-2-yl)methoxy]biphenyl-3-yl}methoxy)-2-fluorophenyl]propanoic acid hydrochloride] | 0.023 | 55 to 56
Cc1cc(OC2CCS(=O)(=O)CC2)cc(C)c1-c1cccc(COc2ccc(CCC(=O)O)c(F)c2)c1 [Example 114, 3-[4-({4′-[(1,1-dioxidotetrahydro-2H-thiopyran-4-yl)oxy]-2′,6′-dimethylbiphenyl-3-yl}methoxy)-2-fluorophenyl]propanoic acid] | 0.02 | –
Cc1cc(OCC2(C)COC2)cc(C)c1-c1cccc(COc2ccc(CCC(=O)O)c(F)c2)c1 [Example 116, 3-[4-({2′,6′-dimethyl-4′-[(3-methyloxetan-3-yl)methoxy]biphenyl-3-yl}methoxy)-2-fluorophenyl]propanoic acid] | – | 112 to 113

Other lines, results leading:

EC50 (human GPR40) [µM] | melting point [°C] | SMILES
0.01 | – | Cc1cc(OCCc2scnc2C)ccc1-c1cccc(COc2ccc(CCC(=O)O)cc2)c1 [Example 14, 3-[4-({2′-methyl-4′-[2-(4-methyl-1,3-thiazol-5-yl)ethoxy]biphenyl-3-yl}methoxy)phenyl]propanoic acid]
0.0061 | – | Cc1cc(Cl)ccc1-c1cccc(COc2ccc(CCC(=O)O)cc2)c1 [Example 33, 3-[4-[(4′-chloro-2′-methylbiphenyl-3-yl)methoxy]phenyl]propanoic acid]
0.011 | – | COc1ccc(COc2ccc(CCC(=O)O)cc2)cc1-c1ccc(C)cc1C [Example 49, 3-(4-((6-methoxy-2′,4′-dimethylbiphenyl-3-yl)methoxy)phenyl)propanoic acid]
0.016 | – | CCOCCOc1cc(C)c(-c2cccc(COc3ccc(CC(F)(F)C(=O)O)cc3)c2)c(C)c1 [Example 75, 3-(4-{[4′-(2-ethoxyethoxy)-2′,6′-dimethylbiphenyl-3-yl]methoxy}phenyl)-2,2-difluoropropanoic acid]
0.017 | – | Cc1cc(OCC2(O)CCS(=O)(=O)CC2)cc(C)c1-c1cccc(COc2ccc(CCC(=O)O)c(F)c2)c1 [Example 100, 3-[2-fluoro-4-({4′-[(4-hydroxy-1,1-dioxidotetrahydro-2H-thiopyran-4-yl)methoxy]-2′,6′-dimethylbiphenyl-3-yl}methoxy)phenyl]propanoic acid]
0.015 | 124 to 125 | Cc1cc(OS(C)(=O)=O)cc(C)c1-c1cccc(COc2ccc(CCC(=O)O)c(F)c2)c1 [Example 102, 3-[4-({2′,6′-dimethyl-4′-[(methylsulfonyl)oxy]biphenyl-3-yl}methoxy)-2-fluorophenyl]propanoic acid]
